ChEMBL document CHEMBL5055627 (J Med Chem, 2021)

Key:
[1] = Inhibition of Mycobacterium tuberculosis 20S proteasome open gate mutant expressed in Escherichia coli BL21(DE3) using Suc-LLVY-AMC as substrate measured over 1.5 to 2 hrs by plate reader assay
[2] = tested on: human 20S immunoproteasome subunit beta-5i (versus Mycobacterium tuberculosis 20S open gate mutant); test: Selectivity index, ratio of IC50 for human 20S immunoproteasome subunit beta-5i to IC50 for Mycobacterium tuberculosis 20S open gate mutant; format: toxicity; details: read-out: Ratio IC50
[3] = tested on: human 20S constitutive proteasome subunit beta-5c (versus Mycobacterium tuberculosis 20S open gate mutant); test: Selectivity index, ratio of IC50 for human 20S constitutive proteasome subunit beta-5c to IC50 for Mycobacterium tuberculosis 20S open gate mutant; format: toxicity; details: read-out: Ratio IC50

## O=C1CCCCCCCCOC[C@@H](C(=O)NCc2ccccc2F)NC(=O)[C@H](CC(=O)N2CCC[C@@H]2c2ccccc2)N1
[1]
  IC50: 7 nM
[2]
  selectivity ratio: > 14000
[3]
  selectivity ratio: > 14000

## O=C(N[C@H]1Cc2cccc(c2)Oc2ccc(cc2)C[C@@H](C(=O)NCc2ccccc2F)NC(=O)[C@H](CC(=O)N2CCC[C@@H]2c2ccccc2)NC1=O)c1ccccc1
[1]
  IC50: 840 nM
[2]
  selectivity ratio: > 119
[3]
  selectivity ratio: > 119

## CCN(CC)C(=O)C[C@H](NC(=O)CCc1ccccc1)C(=O)N[C@@H](Cc1ccc(F)cc1)C(=O)NCc1cccc2ccccc12
[1]
  IC50: 15 nM
[2]
  selectivity ratio: 3650
[3]
  selectivity ratio: 4670

## O=C1CCCCCCCCCC[C@@H](C(=O)NCc2cccc3ccccc23)NC(=O)[C@H](CC(=O)N2CCCC2)N1
[1]
  IC50: 150 nM

## O=C1N[C@@H](CC(=O)N2CCCC2)C(=O)N[C@H](C(=O)NCc2cccc3ccccc23)CCCCCCCCCC1Cc1ccccc1 (some centres undefined)
[1]
  IC50: 5000 nM

## O=C1CCCCCCCCOC[C@@H](C(=O)NCc2cccc3ccccc23)NC(=O)[C@H](CC(=O)N2CCCC2)N1
[1]
  IC50: 100 nM

## O=C1CCc2cccc(c2)Oc2ccc(cc2)C[C@@H](C(=O)NCc2ccccc2F)NC(=O)[C@H](CC(=O)N2CCCC2)N1
[1]
  IC50: 200 nM
[2]
  selectivity ratio: 108

## O=C1CCc2cccc(c2)OCCCC[C@@H](C(=O)NCc2ccccc2F)NC(=O)[C@H](CC(=O)N2CCC[C@@H]2C2CC2)N1
[1]
  IC50: 7 nM
[2]
  selectivity ratio: 11
[3]
  selectivity ratio: 11

## O=C1CCc2cccc(c2)OCCCC[C@@H](C(=O)NCc2ccccc2F)NC(=O)[C@H](CC(=O)N2CCC[C@@H]2c2ccccc2)N1
[1]
  IC50: 7 nM
[2]
  selectivity ratio: > 14000
[3]
  selectivity ratio: > 14000

## O=C1CCc2cccc(c2)OCCCC[C@@H](C(=O)NCc2ccccc2F)NC(=O)[C@H](CCN2CCC[C@@H]2c2ccccc2)N1
[1]
  IC50: 1500 nM
[2]
  selectivity ratio: 31
[3]
  selectivity ratio: 57

## O=C1CCc2cccc(c2)Oc2ccc(cc2)C[C@@H](C(=O)NCc2ccccc2F)NC(=O)[C@H](CC(=O)N2CCC[C@@H]2c2ccccc2)N1
[1]
  IC50: 7.4 nM
[2]
  selectivity ratio: > 13600
[3]
  selectivity ratio: > 13600

## Cc1ccc(CNC(=O)[C@@H]2Cc3cccc(c3)Oc3cccc(c3)C[C@H](N)C(=O)N[C@@H](CCc3ccccc3)C(=O)N2)cc1
[1]
  IC50: > 100000 nM

## CC(=O)N[C@H]1Cc2cccc(c2)Oc2ccc(cc2)C[C@@H](C(=O)NCc2ccccc2F)NC(=O)[C@H](CC(=O)N2CCC[C@@H]2c2ccccc2)NC1=O
[1]
  IC50: 170 nM
[2]
  selectivity ratio: > 594
[3]
  selectivity ratio: > 594

## O=C1CCCCCCCCC[C@@H](C(=O)NCc2cccc3ccccc23)NC(=O)[C@H](CC(=O)N2CCCC2)N1
[1]
  IC50: 710 nM

## O=C1CCc2cccc(c2)OCCCC[C@@H](C(=O)NCc2ccccc2F)NC(=O)[C@H](CC(=O)N2CCC[C@H]2C2CC2)N1
[1]
  IC50: 79 nM
[2]
  selectivity ratio: 11
[3]
  selectivity ratio: 19
